Columns and labels:
RPMI-8226 = experiment: Cytotoxicity against human RPMI8226 cells assessed as cell growth at 10 uM after 48 hrs by SRB assay relative to control; format: functional; details: RPMI-8226, 48 h, read-out: Activity
CAKI-1 = experiment: Cytotoxicity against human Caki1 cells assessed as cell growth at 10 uM after 48 hrs by SRB assay relative to control; format: functional; details: CAKI-1, 48 h, read-out: Activity
SF-539 = experiment: Cytotoxicity against human SF539 cells assessed as cell growth at 10 uM after 48 hrs by SRB assay relative to control; format: functional; details: SF-539, 48 h, read-out: Activity
SK-MEL-5 = experiment: Cytotoxicity against human SK-MEL-5 cells assessed as cell growth at 10 uM after 48 hrs by SRB assay relative to control; format: functional; details: SK-MEL-5, 48 h, read-out: Activity
[1] = Cytotoxicity against human UACC257 cells assessed as cell growth at 10 uM after 48 hrs by SRB assay relative to control; format: functional; details: UACC-257, 48 h, read-out: Activity
SW-620 = experiment: Cytotoxicity against human SW620 cells assessed as cell growth at 10 uM after 48 hrs by SRB assay relative to control; format: functional; details: SW-620, 48 h, read-out: Activity
MDA-MB-231 [2] = experiment: Cytotoxicity against human MDA-MB-231 cells assessed as growth inhibition after 24 hrs by MTT assay; format: cell-based; details: MDA-MB-231, 24 h
IGROV-1 = experiment: Cytotoxicity against human IGROV1 cells assessed as cell growth at 10 uM after 48 hrs by SRB assay relative to control; format: functional; details: IGROV-1, 48 h, read-out: Activity
KM12 = experiment: Cytotoxicity against human KM12 cells assessed as cell growth at 10 uM after 48 hrs by SRB assay relative to control; format: functional; details: KM12, 48 h, read-out: Activity
A498 = experiment: Cytotoxicity against human A498 cells assessed as cell growth at 10 uM after 48 hrs by SRB assay relative to control; format: functional; details: A498, 48 h, read-out: Activity
CCRF-CEM = experiment: Cytotoxicity against human CCRF-CEM cells assessed as cell growth at 10 uM after 48 hrs by SRB assay relative to control; format: functional; details: read-out: Activity
[3] = Cytotoxicity against human UO31 cells assessed as cell growth at 10 uM after 48 hrs by SRB assay relative to control; format: functional; details: UO-31, 48 h, read-out: Activity
SNB-19 = experiment: Cytotoxicity against human SNB19 cells assessed as cell growth at 10 uM after 48 hrs by SRB assay relative to control; format: functional; details: SNB-19, 48 h, read-out: Activity
SK-MEL-28 = experiment: Cytotoxicity against human SK-MEL-28 cells assessed as cell growth at 10 uM after 48 hrs by SRB assay relative to control; format: functional; details: SK-MEL-28, 48 h, read-out: Activity
786-0 = experiment: Cytotoxicity against human 786-0 cells assessed as cell growth at 10 uM after 48 hrs by SRB assay relative to control; format: functional; details: 786-0, 48 h, read-out: Activity
MCF7 [4] = experiment: Growth inhibition of human MCF7 cells after 72 hrs by MTT assay; format: functional, cell-based; details: MCF7, 72 h
SNB-75 = experiment: Cytotoxicity against human SNB75 cells assessed as cell growth at 10 uM after 48 hrs by SRB assay relative to control; format: functional; details: SNB-75, 48 h, read-out: Activity
NCI-H460 = experiment: Cytotoxicity against human NCI-H460 cells assessed as cell growth at 10 uM after 48 hrs by SRB assay relative to control; format: functional; details: NCI-H460, 48 h, read-out: Activity
LOX IMVI = experiment: Cytotoxicity against human LOXIMVI cells assessed as cell growth at 10 uM after 48 hrs by SRB assay relative to control; format: functional; details: read-out: Activity
[5] = Cytotoxicity against human UACC62 cells assessed as cell growth at 10 uM after 48 hrs by SRB assay relative to control; format: functional; details: UACC-62, 48 h, read-out: Activity
HL-60(TB) = experiment: Cytotoxicity against human HL-60(TB) cells assessed as cell growth at 10 uM after 48 hrs by SRB assay relative to control; format: functional; details: HL-60, 48 h, read-out: Activity
[6] = Cytotoxicity against human OVCAR5 cells assessed as cell growth at 10 uM after 48 hrs by SRB assay relative to control; format: functional; details: OVCAR-5, 48 h, read-out: Activity
[7] = Cytotoxicity against human HCT15 cells assessed as cell growth at 10 uM after 48 hrs by SRB assay relative to control; format: functional; details: HCT-15, 48 h, read-out: Activity
MDA-MB-468 = experiment: Cytotoxicity against human MDA-MB-468 cells assessed as cell growth at 10 uM after 48 hrs by SRB assay relative to control; format: functional; details: MDA-MB-468, 48 h, read-out: Activity
[8] = Cytotoxicity against human OVCAR8 cells assessed as cell growth at 10 uM after 48 hrs by SRB assay relative to control; format: functional; details: OVCAR-8, 48 h, read-out: Activity
[9] = Cytotoxicity against human SKOV3 cells assessed as cell growth at 10 uM after 48 hrs by SRB assay relative to control; format: functional; details: SK-OV-3, 48 h, read-out: Activity
MDA-MB-231 [10] = experiment: Growth inhibition of human MDA-MB-231 cells after 72 hrs by MTT assay; format: functional, cell-based; details: MDA-MB-231, 72 h
[11] = Cytotoxicity against human EKVX cells assessed as cell growth at 10 uM after 48 hrs by SRB assay relative to control; format: functional; details: read-out: Activity
[12] = Cytotoxicity against human HCT116 cells assessed as cell growth at 10 uM after 48 hrs by SRB assay relative to control; format: functional; details: HCT-116, 48 h, read-out: Activity
K562 = experiment: Cytotoxicity against human K562 cells assessed as cell growth at 10 uM after 48 hrs by SRB assay relative to control; format: functional; details: K562, 48 h, read-out: Activity
A549 = experiment: Cytotoxicity against human A549 cells assessed as cell growth at 10 uM after 48 hrs by SRB assay relative to control; format: functional; details: A549, 48 h, read-out: Activity
MCF7 [13] = experiment: Cytotoxicity against human MCF7 cells assessed as cell growth at 10 uM after 48 hrs by SRB assay relative to control; format: functional; details: MCF7, 48 h, read-out: Activity
SF-295 = experiment: Cytotoxicity against human SF295 cells assessed as cell growth at 10 uM after 48 hrs by SRB assay relative to control; format: functional; details: SF-295, 48 h, read-out: Activity
NCI-H23 = experiment: Cytotoxicity against human NCI-H23 cells assessed as cell growth at 10 uM after 48 hrs by SRB assay relative to control; format: functional; details: NCI-H23, 48 h, read-out: Activity
ACHN = experiment: Cytotoxicity against human ACHN cells assessed as cell growth at 10 uM after 48 hrs by SRB assay relative to control; format: functional; details: read-out: Activity
MDA-MB-231 [14] = experiment: Antimigratory activity against human MDA-MB-231 cells after 24 hrs by wound-healing assay; format: functional, cell-based; details: MDA-MB-231, 24 h
[15] = Cytotoxicity against human PC3 cells assessed as cell growth at 10 uM after 48 hrs by SRB assay relative to control; format: functional; details: PC-3, 48 h, read-out: Activity

| SMILES | growth at 10 µM (RPMI-8226) | growth at 10 µM (CAKI-1) | growth at 10 µM (SF-539) | growth at 10 µM (SK-MEL-5) | growth at 10 µM [1] | growth at 10 µM (SW-620) | IC50 (MDA-MB-231 [2]) | growth at 10 µM (IGROV-1) | growth at 10 µM (KM12) | growth at 10 µM (A498) | growth at 10 µM (CCRF-CEM) | growth at 10 µM [3] | growth at 10 µM (SNB-19) | growth at 10 µM (SK-MEL-28) | growth at 10 µM (786-0) | IC50 (MCF7 [4]) | growth at 10 µM (SNB-75) | growth at 10 µM (NCI-H460) | growth at 10 µM (LOX IMVI) | growth at 10 µM [5] | other results |
| --- | --- | --- | --- | --- | --- | --- | --- | --- | --- | --- | --- | --- | --- | --- | --- | --- | --- | --- | --- | --- | --- |
| CC(C)=CCC[C@H](C)c1ccc(C)c2c1OCN(CCCCC(=O)O)C2 | 92.3% | 81% | 91.8% | 92% | 89.5% | 101% | > 20 µM | 108% | 107% | 99.4% | 93.2% | 69.7% | 92.7% | 115% | 82.6% | > 20 µM | 91.8% | 105% | 90.2% | 79.7% | growth at 10 µM (HL-60(TB)): 77.5%; growth at 10 µM [6]: 90.8%; growth at 10 µM [7]: 92.3%; growth at 10 µM (MDA-MB-468): 87%; growth at 10 µM [8]: 88.8%; growth at 10 µM [9]: 104%; IC50 (MDA-MB-231 [10]): > 50 µM; growth at 10 µM [11]: 102%; growth at 10 µM [12]: 88.6%; growth at 10 µM (K562): 87.5%; growth at 10 µM (A549): 101%; growth at 10 µM (MCF7 [13]): 92.5%; growth at 10 µM (SF-295): 102%; growth at 10 µM (NCI-H23): 95.1%; growth at 10 µM (ACHN): 98.8%; IC50 (MDA-MB-231 [14]): 29.9 µM; growth at 10 µM [15]: 92.3% |
| CC(C)=CCC[C@H](C)c1ccc(C)c(CNCCCCC(=O)O)c1O | 95.1% | 90.6% | 111% | 98.4% | 101% | 98.3% | > 20 µM | 105% | 102% | 92.3% | 97.9% | 81.9% | 103% | 109% | 100% | > 20 µM | 95.4% | 105% | 95% | 92.3% | growth at 10 µM (HL-60(TB)): 84.6%; growth at 10 µM [6]: 102%; growth at 10 µM [7]: 105%; growth at 10 µM (MDA-MB-468): 100%; growth at 10 µM [8]: 94.1%; growth at 10 µM [9]: 105%; IC50 (MDA-MB-231 [10]): > 50 µM; growth at 10 µM [11]: 97.9%; growth at 10 µM [12]: 101%; growth at 10 µM (K562): 96.1%; growth at 10 µM (A549): 95.8%; growth at 10 µM (MCF7 [13]): 101%; growth at 10 µM (SF-295): 101%; growth at 10 µM (NCI-H23): 98.8%; growth at 10 µM (ACHN): 102%; IC50 (MDA-MB-231 [14]): > 20 µM; growth at 10 µM [15]: 98% |
| CC(C)=CCC[C@H](C)c1ccc(C)c(CNCC2CCNCC2)c1O | 61.7% | 71.8% | 84% | 73% | 64.2% | 86% | > 20 µM | 83.4% | 84% | 65% | 71.3% | 64.3% | 84% | 91% | 81.2% | > 20 µM | 71% | 54.7% | 37.1% | 13.2% | growth at 10 µM (HL-60(TB)): 99%; growth at 10 µM [6]: 82%; growth at 10 µM [7]: 79%; growth at 10 µM (MDA-MB-468): 70%; growth at 10 µM [8]: 85%; growth at 10 µM [9]: 83%; IC50 (MDA-MB-231 [10]): 18.3 µM; growth at 10 µM [11]: 67%; growth at 10 µM [12]: 63%; growth at 10 µM (K562): 2.65%; growth at 10 µM (A549): 86%; growth at 10 µM (MCF7 [13]): 78.2%; growth at 10 µM (SF-295): 67%; growth at 10 µM (NCI-H23): 84%; growth at 10 µM (ACHN): 81%; IC50 (MDA-MB-231 [14]): > 20 µM; growth at 10 µM [15]: 85% |
